The assay concerns BDF1 mice, M5076 sarcoma s.c., survival/tumor T/C. Briefly: NCI In Vivo Anticancer Drug Screen. Data for tumor model Sarcoma M5076 (subcutaneous) in B6D2F1 (BDF1) mice. On the procedure: The antitumor activity of compounds was measured in mice bearing transplantable tumors. Survival or tumor size were measured and the results are expressed as the measurement made in the treated group (T) divided by the measurement made in the vehicle treated control group (C). The tumor model used in this assay is Sarcoma M5076 (subcutaneous) in B6D2F1 (BDF1) mice

Molecules are shown by their SMILES. “And” between values parts separate entries of the source, which are not always exact repeats. Identical values can stand only once. Inconclusive results are not listed. Numbered stars: 1 amine (or outer) side, 2 acyl side, 3 side chain; on linkers, the order of the positions; unused ones are H or OH. Bridge positions count the residues as written; N and C are the ends. Square brackets hold non-standard residues; d marks the D form. Peptide text beside a SMILES is read from it. I, II: the chains in the order shown. * marks the point of attachment. ξ: configuration not given here. Quinaldoyl(3-OH,6-OMe) = COc1ccc2nc(C(=O)*)c(O)cc2c1; X2 = CC(=O)OC1CC=NN([*:1])C1C(=O)[*:2]; ξNMeVal(3-OH) = CNC(C(=O)O)C(C)(C)O; X3 = O=C(C1CCCNN1[*:1])[*:2]; Sar = CNCC(=O)O

Turning to `COc1cccc2c1C(=O)c1c(O)c3c(c(O)c1C2=O)C[C@@](O)(C(=O)CO)C[C@@H]3OC1CC(N)C(O)C(C)O1` (stereo partly drawn), the T/C was 81 % of control (endpoint: mean tumor weight, dose: 1.0 mg/kg/injection, schedule: Q02DX011 (ip), vehicle: saline, higher = larger tumour); 39 % of control (endpoint: mean tumor weight, dose: 2.0 mg/kg/injection, schedule: Q02DX011 (ip), vehicle: saline, higher = larger tumour); 97 % of control (endpoint: median survival time, dose: 0.25 mg/kg/injection, schedule: Q02DX009 (iv), vehicle: saline, higher = longer survival); 94 % of control (endpoint: median survival time, dose: 0.5 mg/kg/injection, schedule: Q02DX009 (iv), vehicle: saline, higher = longer survival); 114 % of control (endpoint: median survival time, dose: 0.5 mg/kg/injection, schedule: Q04DX009 (ip), vehicle: saline, higher = longer survival); 100 % of control (endpoint: median survival time, dose: 1.0 mg/kg/injection, schedule: Q02DX009 (iv), vehicle: saline, higher = longer survival). Besides, the T/C is 100 % of control (endpoint: median survival time, dose: 1.0 mg/kg/injection, schedule: Q02DX011 (ip), vehicle: water, higher = longer survival); 111 % of control (endpoint: median survival time, dose: 1.0 mg/kg/injection, schedule: Q04DX009 (ip), vehicle: saline, higher = longer survival); 100 % of control (endpoint: median survival time, dose: 1.3 mg/kg/injection, schedule: Q04DX004 (iv), vehicle: saline, higher = longer survival); 97 % of control (endpoint: median survival time, dose: 2.0 mg/kg/injection, schedule: Q02DX009 (iv), vehicle: saline, higher = longer survival); 94 % of control (endpoint: median survival time, dose: 2.0 mg/kg/injection, schedule: Q02DX011 (ip), vehicle: water, higher = longer survival); 111 % of control (endpoint: median survival time, dose: 2.0 mg/kg/injection, schedule: Q04DX009 (ip), vehicle: saline, higher = longer survival). Besides, the T/C is 90 % of control (endpoint: median survival time, dose: 2.16 mg/kg/injection, schedule: Q04DX004 (ip), vehicle: saline, higher = longer survival); 112 % of control (endpoint: median survival time, dose: 2.16 mg/kg/injection, schedule: Q04DX004 (iv), vehicle: saline, higher = longer survival); 96 % of control (endpoint: median survival time, dose: 3.0 mg/kg/injection, schedule: Q02DX011 (ip), vehicle: water, higher = longer survival); 108 % of control (endpoint: median survival time, dose: 3.0 mg/kg/injection, schedule: Q04DX003 (iv), vehicle: saline, higher = longer survival); 103 % of control (endpoint: median survival time, dose: 3.6 mg/kg/injection, schedule: Q04DX004 (ip), vehicle: saline, higher = longer survival); 93 % of control (endpoint: median survival time, dose: 3.6 mg/kg/injection, schedule: Q04DX004 (iv), vehicle: saline, higher = longer survival). Moreover, the T/C is, setting by setting: (endpoint: median survival time, dose: 4.0 mg/kg/injection, schedule: Q02DX011 (ip), vehicle: water, higher = longer survival) 38 % of control; (endpoint: median survival time, dose: 4.0 mg/kg/injection, schedule: Q04DX009 (ip), vehicle: saline, higher = longer survival) 108 % of control; (endpoint: median survival time, dose: 4.5 mg/kg/injection, schedule: Q04DX003 (iv), vehicle: saline, higher = longer survival) 124 % of control; (endpoint: median tumor weight (est.), dose: 1.0 mg/kg/injection, schedule: Q02DX011 (ip), vehicle: saline, higher = larger tumour) 76 % of control; (endpoint: median tumor weight (est.), dose: 2.0 mg/kg/injection, schedule: Q02DX011 (ip), vehicle: saline, higher = larger tumour) 26 % of control.
Consider `COc1ccc2nc(C(=O)NC3COC(=O)C(C(C)(C)O)N(C)C(=O)CN(C)C(=O)CNC(=O)C4CCCNN4C(=O)C(NC(=O)c4nc5ccc(OC)cc5cc4O)COC(=O)C(C(C)(C)O)N(C)C(=O)CN(C)C(=O)CNC(=O)C4C(OC(C)=O)CC=NN4C3=O)c(O)cc2c1` (stereo not drawn) (I: {Quinaldoyl(3-OH,6-OMe)}-S[X2]G[Sar][ξNMeVal(3-OH)] / II: {Quinaldoyl(3-OH,6-OMe)}-S[X3]G[Sar][ξNMeVal(3-OH)]; ester I:1-II:C, I:C-II:1; configuration not given here), for which the T/C is 97 % of control (endpoint: median survival time, dose: 5.0 micrograms/kg/injection, schedule: Q01DX009 (ip), vehicle: Klucel (hydroxypropylcellulose) (HPC), higher = longer survival); 86 % of control (endpoint: median survival time, dose: 10.0 micrograms/kg/injection, schedule: Q01DX009 (ip), vehicle: Klucel (hydroxypropylcellulose) (HPC), higher = longer survival); 95 % of control (endpoint: median survival time, dose: 20.0 micrograms/kg/injection, schedule: Q01DX009 (ip), vehicle: Klucel (hydroxypropylcellulose) (HPC), higher = longer survival); 94 % of control (endpoint: median survival time, dose: 40.0 micrograms/kg/injection, schedule: Q01DX009 (ip), vehicle: Klucel (hydroxypropylcellulose) (HPC), higher = longer survival); 90 % of control (endpoint: median tumor weight (est.), dose: 5.0 micrograms/kg/injection, schedule: Q01DX009 (ip), vehicle: DMSO, higher = larger tumour); 107 % of control (endpoint: median tumor weight (est.), dose: 10.0 micrograms/kg/injection, schedule: Q01DX009 (ip), vehicle: DMSO, higher = larger tumour). For the same compound, the T/C (endpoint: median tumor weight (est.), dose: 20.0 micrograms/kg/injection, schedule: Q01DX009 (ip), vehicle: DMSO, higher = larger tumour) is 117 % of control.
Consider `S=P(N1CC1)(N1CC1)N1CC1`, for which the T/C runs as follows: (endpoint: median survival time, dose: 3.4 mg/kg/injection, schedule: Q01DX007 (ip), vehicle: saline, higher = longer survival) 100 % of control; (endpoint: median survival time, dose: 3.4 mg/kg/injection, schedule: Q02DX007 (ip), vehicle: saline, higher = longer survival) 105 % of control; (endpoint: median survival time, dose: 4.0 mg/kg/injection, schedule: Q04DX003 (ip), vehicle: saline, higher = longer survival) 101 % of control; (endpoint: median survival time, dose: 5.0 mg/kg/injection, schedule: Q01DX007 (ip), vehicle: saline, higher = longer survival) 105 % of control; (endpoint: median survival time, dose: 5.0 mg/kg/injection, schedule: Q02DX007 (ip), vehicle: saline, higher = longer survival) 101 % of control; (endpoint: median survival time, dose: 6.0 mg/kg/injection, schedule: Q04DX003 (ip), vehicle: saline, higher = longer survival) 100 % of control. Moreover, the T/C was 99 % of control (endpoint: median survival time, dose: 6.0 mg/kg/injection, schedule: Q07DX003 (ip), vehicle: saline, higher = longer survival); 106 % of control (endpoint: median survival time, dose: 7.5 mg/kg/injection, schedule: Q01DX007 (ip), vehicle: saline, higher = longer survival); 117 % of control (endpoint: median survival time, dose: 7.5 mg/kg/injection, schedule: Q02DX007 (ip), vehicle: saline, higher = longer survival); 107 % of control (endpoint: median survival time, dose: 9.0 mg/kg/injection, schedule: Q04DX003 (ip), vehicle: saline, higher = longer survival); 108 % of control (endpoint: median survival time, dose: 9.0 mg/kg/injection, schedule: Q07DX003 (ip), vehicle: saline, higher = longer survival); 111 % of control (endpoint: median survival time, dose: 12.0 mg/kg/injection, schedule: Q07DX003 (ip), vehicle: saline, higher = longer survival).
`CCOC(=O)C(CC(C)C)NC(=O)C(Cc1ccc(N(CCCl)CCCl)cc1)NC(C)=O` (stereo not drawn): the T/C by setting is: (endpoint: median survival time, dose: 8.0 mg/kg/injection, schedule: Q01DX009 (ip), vehicle: saline with Tween-80, higher = longer survival) 111 % of control; (endpoint: median survival time, dose: 16.0 mg/kg/injection, schedule: Q01DX009 (ip), vehicle: saline with Tween-80, higher = longer survival) 117 % of control and 122 % of control; (endpoint: median survival time, dose: 64.0 mg/kg/injection, schedule: Q01DX009 (ip), vehicle: saline with Tween-80, higher = longer survival) 170 % of control; (endpoint: median tumor weight (est.), dose: 8.0 mg/kg/injection, schedule: Q01DX009 (ip), vehicle: saline with Tween-80, higher = larger tumour) 61 % of control; (endpoint: median tumor weight (est.), dose: 16.0 mg/kg/injection, schedule: Q01DX009 (ip), vehicle: saline with Tween-80, higher = larger tumour) 52 % of control; (endpoint: median tumor weight (est.), dose: 32.0 mg/kg/injection, schedule: Q01DX009 (ip), vehicle: saline with Tween-80, higher = larger tumour) 16 % of control.
In the case of `CC[C@]1(O)C[C@H]2CN(CCc3c([nH]c4ccccc34)[C@@](C(=O)OC)(c3cc4c(cc3OC)N(C=O)[C@H]3[C@@](O)(C(=O)OC)[C@H](OC(C)=O)[C@]5(CC)C=CCN6CC[C@]43[C@@H]65)C2)C1`, the T/C (endpoint: median survival time, dose: 0.08 mg/kg/injection, schedule: Q02DX030 (ip), vehicle: saline, higher = longer survival) is 110 % of control; the T/C (endpoint: median survival time, dose: 0.08 mg/kg/injection, schedule: Q04DX006 (ip), vehicle: saline, higher = longer survival) was 112 % of control; the T/C (endpoint: median survival time, dose: 0.15 mg/kg/injection, schedule: Q04DX006 (ip), vehicle: saline, higher = longer survival) is 97 % of control; the T/C (endpoint: median survival time, dose: 0.3 mg/kg/injection, schedule: Q04DX006 (ip), vehicle: saline, higher = longer survival) is 103 % of control; the T/C (endpoint: median survival time, dose: 0.6 mg/kg/injection, schedule: Q04DX006 (ip), vehicle: saline, higher = longer survival) was 109 % of control.
With `CCCNC(=O)ON1C(=O)C2C3C=CC(C3)C2C1=O` (stereo not drawn), the T/C is, setting by setting: (endpoint: median survival time, dose: 3.12 mg/kg/injection, schedule: Q01DX009 (ip), vehicle: saline with Tween-80, higher = longer survival) 98 % of control; (endpoint: median survival time, dose: 6.25 mg/kg/injection, schedule: Q01DX009 (ip), vehicle: saline with Tween-80, higher = longer survival) 95 % of control; (endpoint: median survival time, dose: 12.5 mg/kg/injection, schedule: Q01DX009 (ip), vehicle: saline with Tween-80, higher = longer survival) 103 % of control; (endpoint: median tumor weight (est.), dose: 3.12 mg/kg/injection, schedule: Q01DX009 (ip), vehicle: saline with Tween-80, higher = larger tumour) 93 % of control; (endpoint: median tumor weight (est.), dose: 6.25 mg/kg/injection, schedule: Q01DX009 (ip), vehicle: saline with Tween-80, higher = larger tumour) 107 % of control.

The values above are taken from PubChem BioAssay AID288 (DTP/NCI, 2004).
